As a reminder, the IC50 is the point on the concentration scale where inhibition reaches its midpoint.

Calls of active or inactive are those of the source. The rule behind the calls is not given here. Some results are limits rather than exact numbers.

For test [1], the target named is Acyl-protein thioesterase 1 (Homo sapiens) (UniProt O75608). Description: LYPLA1 and LYPLA2 inhibitor potency, dose response, gel-based ABPP, fluorescence, HEK293T proteome (AID 651990). Particulars: HEK293T soluble proteome, gel-based ABPP FP-PEG-Rh fluorescence; LYPLA1.
Sequence of Acyl-protein thioesterase 1 (Homo sapiens) (O75608 whole entry, looked up): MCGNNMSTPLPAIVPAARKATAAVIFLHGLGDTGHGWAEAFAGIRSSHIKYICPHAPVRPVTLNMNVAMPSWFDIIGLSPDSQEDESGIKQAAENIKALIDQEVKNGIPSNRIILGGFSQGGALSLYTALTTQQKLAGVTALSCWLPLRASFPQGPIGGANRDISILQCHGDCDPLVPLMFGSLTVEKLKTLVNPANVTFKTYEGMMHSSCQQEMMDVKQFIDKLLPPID
Test [2] deals with Acyl-protein thioesterase 2 (Homo sapiens) (UniProt O95372). The description is as above. Particulars: HEK293T soluble proteome, gel-based ABPP FP-PEG-Rh fluorescence; LYPLA2.
Sequence of Acyl-protein thioesterase 2 (Homo sapiens) (O95372 whole entry, looked up): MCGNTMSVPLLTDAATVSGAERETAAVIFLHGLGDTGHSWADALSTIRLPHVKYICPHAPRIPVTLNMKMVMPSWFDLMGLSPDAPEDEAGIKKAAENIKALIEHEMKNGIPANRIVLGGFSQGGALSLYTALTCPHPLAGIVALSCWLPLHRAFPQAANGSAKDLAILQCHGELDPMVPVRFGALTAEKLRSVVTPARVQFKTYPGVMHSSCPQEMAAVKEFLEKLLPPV

Take `COc1ccc(N2CCN(C(=O)c3cc4c(s3)-c3ccccc3S(=O)(=O)C4)CC2)cc1`: the IC50 in test [1] was > 3000 nM (inactive); in test [2], 144 nM. In the case of `O=C(CN1CCN(C(=O)c2ccco2)CC1)Nc1cc(C(F)(F)F)ccc1Cl`, in test [2], the IC50 is > 3000 nM (inactive).
